Results taken from patent publication US8138168B1 (Takeda Pharmaceutical Company Limited, priority 2007, dated 2012).

Molecular target: T1, Recombinant human renin (Homo sapiens, UniProt P00797)
T1 construct: isolate the active form (residues 67-406); made in house; host or cells: FreeStyle 293-F cells (transient expression of pcDNA3.1(+)/hREN)
T1 sequence (P00797 67-406): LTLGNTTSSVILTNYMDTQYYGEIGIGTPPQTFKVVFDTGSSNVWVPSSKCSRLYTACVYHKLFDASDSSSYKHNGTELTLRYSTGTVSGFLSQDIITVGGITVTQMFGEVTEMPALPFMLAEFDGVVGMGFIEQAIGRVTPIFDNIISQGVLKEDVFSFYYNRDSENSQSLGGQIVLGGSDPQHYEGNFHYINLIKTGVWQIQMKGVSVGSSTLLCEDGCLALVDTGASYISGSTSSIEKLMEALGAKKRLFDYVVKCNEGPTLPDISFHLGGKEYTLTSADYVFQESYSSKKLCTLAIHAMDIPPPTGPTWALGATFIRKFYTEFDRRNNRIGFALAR
Assay: In vitro enzymatic activity assay of renin inhibitors (fluorogenic peptide substrate)
Assay type: biochemical
Settings: read-out: IC50 of Exemplified Compounds Against Renin
Experimental: Test compounds in varying concentrations may be reacted with recombinant human renin in the presence of substrate, e.g., QXL520-γ-Abu-[…](HiLyteFluo488)-Arg-OH (Anaspec, San Jose, Calif.). […] Inhibition constants (IC50) may be calculated by non-linear curve fitting of the compound concentrations and fluorescence intensities to the standard IC50 equation.
Solutions of test compounds in varying concentrations mM final concentration) are prepared in dimethyl sulfoxide (DMSO) and then diluted into assay buffer comprising 50 mM Hepes, 1 mM EDTA, 1 mM DTT, 0.1 mg/mL BSA, 0.01% Brij35, pH 7.4. Alternatively, the assay can be performed with a high BSA concentration, wherein the buffer contains an additional 2% BSA.
Recombinant human renin (3 nM final concentration) is added to the dilutions and pre-incubated with the compounds for 10 minutes at 37° C. […] After pre-incubation, the reaction is initiated with of substrate QXL520-γ-Abu-[…](HiLyteFluo488)-Arg-OH (Anaspec, San Jose, Calif.). The final DMSO in the assay is 5%. The total volume of the reaction mixture is 20 μL, which can be placed on Greiner 384-well small volume plates.
The fluorescence intensity is determined upon the addition of substrate and determined again after incubation at 37° C. for one hour. The fluorescence intensity of a blank (no inhibition) using vehicle alone is also determined. Renin activity is linearly proportional to the change in fluorescence observed (final-initial).

| SMILES | IC50 [nM] |
| --- | --- |
| COCCCn1c([C@@H]2CCCN(C(=O)CC(O)Cc3ccc(-c4ccccc4)cc3)C2)nc2ccccc21 (stereo in doubt) [Compound 73, (R)-4-(Biphenyl-4-yl)-3-hydroxy-1-(3-(1-(3-methoxypropyl)-1H-benzo[d]imidazol-2-yl)piperidin-1-yl)butan-1-one] | 100 to 1000 |
| Cc1ccc(NC(=O)N2CCCC(c3nc4ccccc4[nH]3)C2)cc1Cl (stereo not drawn) [Compound 1, 3-(1H-Benzo[d]imidazol-2-yl)-N-(3-chloro-4-methylphenyl)piperidine-1-carboxamide] | > 1000 |
| O=C(NCc1ccccc1)N1CCCC(c2nc3ccccc3[nH]2)C1 (stereo not drawn) [Compound 3] | > 1000 |
| O=C(Nc1ccc2ccccc2c1)N1CCCC(c2nc3ccccc3[nH]2)C1 (stereo not drawn) [Compound 4, 3-(1H-benzo[d]imidazol-2-yl)-N-(naphthalen-2-yl)piperidine-1-carboxamide] | > 1000 |
| O=C(NC(=O)N1CCCC(c2nc3ccccc3[nH]2)C1)c1ccccc1 (stereo not drawn) [Compound 5, 3-(1H-benzo[d]imidazol-2-yl)-N-benzoylpiperidine-1-carboxamide] | > 1000 |
| Cc1cc(C)cc(NC(=O)N2CCCC(c3nc4ccccc4[nH]3)C2)c1 (stereo not drawn) [Compound 6, 3-(1H-benzo[d]imidazol-2-yl)-N-(3,5-dimethylphenyl)piperidine-1-carboxamide] | > 1000 |
| O=C(Nc1ccc(Cl)c(C(F)(F)F)c1)N1CCCC(c2nc3ccccc3[nH]2)C1 (stereo not drawn) [Compound 7, 3-(1H-benzo[d]imidazol-2-yl)-N-(4-chloro-3-(trifluoromethyl)phenyl)piperidine-1-carboxamide] | > 1000 |
| O=C(Nc1ccccc1)N1CCCC(c2nc3ccccc3[nH]2)C1 (stereo not drawn) [Compound 8, 3-(1H-benzo[d]imidazol-2-yl)-N-phenylpiperidine-1-carboxamide] | > 1000 |
| O=C(Nc1ccc2c(c1)CCC2)N1CCCC(c2nc3ccccc3[nH]2)C1 (stereo not drawn) [Compound 9, 3-(1H-benzo[d]imidazol-2-yl)-N-(2,3-dihydro-1H-inden-5-yl)piperidine-1-carboxamide] | > 1000 |
| O=C(NC1CCCCC1)N1CCCC(c2nc3ccccc3[nH]2)C1 (stereo not drawn) [Compound 10, 3-(1H-benzo[d]imidazol-2-yl)-N-cyclohexylpiperidine-1-carboxamide] | > 1000 |
| O=C(Nc1ccc2c(c1)OCO2)N1CCCC(c2nc3ccccc3[nH]2)C1 (stereo not drawn) [Compound 11, N-(benzo[d][1,3]dioxol-5-yl)-3-(1H-benzo[d]imidazol-2-yl)piperidine-1-carboxamide] | > 1000 |
| COC(=O)[C@H](Cc1ccccc1)NC(=O)N1CCCC(c2nc3ccccc3[nH]2)C1 (stereo partly drawn) [Compound 12, (2S)-methyl 2-(3-(1H-benzo[d]imidazol-2-yl)piperidine-1-carboxamido)-3-phenylpropanoate] | > 1000 |
| COC(=O)[C@@H](Cc1ccccc1)NC(=O)N1CCCC(c2nc3ccccc3[nH]2)C1 (stereo partly drawn) [Compound 13, (2R)-methyl 2-(3-(1H-benzo[d]imidazol-2-yl)piperidine-1-carboxamido)-3-phenylpropanoate] | > 1000 |
| CCOC(=O)CCNC(=O)N1CCCC(c2nc3ccccc3[nH]2)C1 (stereo not drawn) [Compound 14, ethyl 3-(3-(1H-benzo[d]imidazol-2-yl)piperidine-1-carboxamido)propanoate] | > 1000 |
| O=C(Nc1ccc2c(c1)OCCO2)N1CCCC(c2nc3ccccc3[nH]2)C1 (stereo not drawn) [Compound 15, 3-(1H-benzo[d]imidazol-2-yl)-N-(2,3-dihydrobenzo[b][1,4]dioxin-6-yl)piperidine-1-carboxamide] | > 1000 |
| O=C(Nc1ccccc1-c1ccccc1)N1CCCC(c2nc3ccccc3[nH]2)C1 (stereo not drawn) [Compound 16, 3-(1H-benzo[d]imidazol-2-yl)-N-(biphenyl-2-yl)piperidine-1-carboxamide] | > 1000 |
| CCCNC(=O)N1CCCC(c2nc3ccccc3[nH]2)C1 (stereo not drawn) [Compound 17, 3-(1H-benzo[d]imidazol-2-yl)-N-propylpiperidine-1-carboxamide] | > 1000 |
| S=C(Nc1cccc2nsnc12)N1CCCC(c2nc3ccccc3[nH]2)C1 (stereo not drawn) [Compound 18, N-(benzo[c][1,2,5]thiadiazol-4-yl)-3-(1H-benzo[d]imidazol-2-yl)piperidine-1-carboxthioamide] | > 1000 |
| COC(=O)[C@H](CC(C)C)NC(=O)N1CCCC(c2nc3ccccc3[nH]2)C1 (stereo partly drawn) [Compound 19, (2S)-methyl 2-(3-(1H-benzo[d]imidazol-2-yl)piperidine-1-carboxamido)-4-methylpentanoate] | > 1000 |
| O=C(Nc1cccnc1)N1CCCC(c2nc3ccccc3[nH]2)C1 (stereo not drawn) [Compound 20, 3-(1H-benzo[d]imidazol-2-yl)-N-(pyridin-3-yl)piperidine-1-carboxamide] | > 1000 |
| O=C(NCc1ccco1)N1CCCC(c2nc3ccccc3[nH]2)C1 (stereo not drawn) [Compound 21, 3-(1H-benzo[d]imidazol-2-yl)-N-(furan-2-ylmethyl)piperidine-1-carboxamide] | > 1000 |
| N[C@@H](CC(=O)N1CCCC(c2nc3ccccc3[nH]2)C1)Cc1ccc(Cl)cc1 (stereo partly drawn) [Compound 23, (3R)-1-(3-(1H-Benzo[d]imidazol-2-yl)piperidin-1-yl)-3-amino-4-(4-chlorophenyl)butan-1-one] | > 1000 |
| COCCCn1c(C2CCCN(C(=O)C[C@H](N)Cc3ccc(Cl)cc3)C2)nc2ccccc21 (stereo partly drawn) [Compound 24, (3R)-3-amino-4-(4-chlorophenyl)-1-(3-(1-(3-methoxypropyl)-1H-benzo[d]imidazol-2-yl)piperidin-1-yl)butan-1-one] | 100 to 1000 |
| N[C@@H](CC(=O)N1CCCC(c2nc3ccccc3[nH]2)C1)c1ccc(C(F)(F)F)cc1 (stereo partly drawn) [Compound 25, (3S)-1-(3-(1H-benzo[d]imidazol-2-yl)piperidin-1-yl)-3-amino-3-(4-(trifluoromethyl)phenyl)propan-1-one] | > 1000 |
| N[C@@H](CC(=O)N1CCCC(c2nc3ccccc3[nH]2)C1)c1ccccc1[N+](=O)[O-] (stereo partly drawn) [Compound 26, (3S)-1-(3-(1H-benzo[d]imidazol-2-yl)piperidin-1-yl)-3-amino-3-(2-nitrophenyl)propan-1-one] | > 1000 |
| N[C@@H](CC(=O)N1CCCC(c2nc3ccccc3[nH]2)C1)Cc1ccccc1Cl (stereo partly drawn) [Compound 27, (3R)-1-(3-(1H-benzo[d]imidazol-2-yl)piperidin-1-yl)-3-amino-4-(2-chlorophenyl)butan-1-one] | > 1000 |
| COc1cccc([C@@H](N)CC(=O)N2CCCC(c3nc4ccccc4[nH]3)C2)c1OC (stereo partly drawn) [Compound 28, (3S)-1-(3-(1H-benzo[d]imidazol-2-yl)piperidin-1-yl)-3-amino-3-(2,3-dimethoxyphenyl)propan-1-one] | > 1000 |
| N[C@@H](CC(=O)N1CCCC(c2nc3ccccc3[nH]2)C1)Cc1csc2ccccc12 (stereo partly drawn) [Compound 29, (3R)-1-(3-(1H-benzo[d]imidazol-2-yl)piperidin-1-yl)-3-amino-4-(benzo[b]thiophen-3-yl)butan-1-one] | > 1000 |
| N[C@@H](CC(=O)N1CCCC(c2nc3ccccc3[nH]2)C1)c1cccc(Cl)c1 (stereo partly drawn) [Compound 30, (3S)-1-(3-(1H-benzo[d]imidazol-2-yl)piperidin-1-yl)-3-amino-3-(3-chlorophenyl)propan-1-one] | > 1000 |
| COc1cc(OC)cc([C@@H](N)CC(=O)N2CCCC(c3nc4ccccc4[nH]3)C2)c1 (stereo partly drawn) [Compound 31, (3S)-1-(3-(1H-benzo[d]imidazol-2-yl)piperidin-1-yl)-3-amino-3-(3,5-dimethoxyphenyl)propan-1-one] | > 1000 |
